Our source for the Ki values is BindingDB's records for doi:10.7270/Q2TB15BF (Nmmlsc, 2009).

This experiment addresses Cell division control protein 42 homolog (Homo sapiens, UniProt P60953). The experiment can be described thus: wild-type Cdc42 GTP-binding inhibitors, SAR follow-up, biochemical, bead-based multiplex flow cytometry, additional SAR set (AID 2022). (Flow cytometry measures light scatter and fluorescence of single cells or particles in a stream.)

pKi: −log10 of the molar value.

Sequence of Cell division control protein 42 homolog (P60953 whole entry): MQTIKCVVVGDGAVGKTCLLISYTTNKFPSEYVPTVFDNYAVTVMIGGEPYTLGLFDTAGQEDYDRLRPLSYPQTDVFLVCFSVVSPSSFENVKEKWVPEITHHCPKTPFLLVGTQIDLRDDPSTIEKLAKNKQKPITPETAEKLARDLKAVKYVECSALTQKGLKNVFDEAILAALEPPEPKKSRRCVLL

By pKi is commonly meant the negative decadic logarithm of the Ki, by convention in mol/L. Read a high pKi as a low Ki. `O=C1Nc2c(Cl)cccc2C1=C1Nc2ccccc2C1=O` showed a pKi of 8.00. The figure for `O=C1N=c2c(F)cccc2=C1c1[nH]c2ccccc2c1NO` [7-fluoro-3-[3-(hydroxyamino)-1H-indol-2-yl]-2-indolone] is 5.23.
